Test [1] deals with T1, CYP26B1 (Homo sapiens, UniProt Q9NR63).
T1 sequence (Q9NR63 1-512): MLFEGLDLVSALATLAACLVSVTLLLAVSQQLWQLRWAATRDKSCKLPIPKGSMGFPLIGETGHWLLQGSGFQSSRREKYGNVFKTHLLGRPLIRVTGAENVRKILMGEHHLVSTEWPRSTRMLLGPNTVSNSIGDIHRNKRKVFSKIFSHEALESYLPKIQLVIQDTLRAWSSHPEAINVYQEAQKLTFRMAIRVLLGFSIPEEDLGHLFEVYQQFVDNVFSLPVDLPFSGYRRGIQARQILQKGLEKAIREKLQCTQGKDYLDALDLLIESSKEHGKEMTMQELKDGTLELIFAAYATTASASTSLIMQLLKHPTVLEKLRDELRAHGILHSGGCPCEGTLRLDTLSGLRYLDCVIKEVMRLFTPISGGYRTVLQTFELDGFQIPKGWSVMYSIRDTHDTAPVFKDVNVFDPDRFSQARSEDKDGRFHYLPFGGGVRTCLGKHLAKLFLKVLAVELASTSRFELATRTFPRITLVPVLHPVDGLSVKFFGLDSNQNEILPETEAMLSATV
Briefly: HeLa cell-based inhibitor assay (HeLa-CYP26B1), inhibition of all trans-RA metabolism. To be noted: CYP26B1 cells; [3H]-RA, 3 hours at 37 °C; Figure 1. The procedure: CYP26A1 or CYP26B1 cDNA stably transfected HeLa cells were maintained in Minimum Essential Medium (MEM) containing 10% fetal bovine serum (FBS), 1X antibiotic/antimycotic cocktail, and […] hygromycin. Exponentially growing cells were harvested by incubation in trypsin. Cells were then collected and re-plated in 48-well culture plates at 1.5×10^5 (CYP26A1) or 1.5×10^4 (CYP26B1) cells in 0.2 mL of culture medium containing 0.04µCi [^3H]-RA (retinoic acid) in the presence or absence of increasing concentrations of a test compound. The test compound was diluted in dimethyl sulfoxide (DMSO) and then added in duplicate to wells to 0.01 nM, 0.1 nM, 1 nM, 10 nM, 100 nM, 1 µM, and 10 µM final concentrations. Cells were incubated for 3 hours at 37 °C. Retinoids were then extracted using the procedure of Bligh, et al., (1959), Canadian Journal of Biochemistry 37, 911-917, which was modified by using dichloromethane instead of chloroform. Each sample's water-soluble radioactivity level was quantified using a β-scintillation counter (using Ecolume scintillation fluid, available from MP Biomedicals of Solon, OH, USA). IC50 values represented the concentration of inhibitor required to inhibit all trans-RA metabolism by 50%, and were derived from log transformed data.

The test system of test [2] is RAR. Briefly: RAR transcriptional activation assay (RARE-luc MCF-7 cells). The following applies: 0.1 nM to 10 µM, 24 hours of treatment; Figure 5. It counts as cell-based. The source says: This retinoid transcriptional activity assay measures the ability of a test compound to induce expression of a RA-sensitive reporter construct. This assay utilizes MCF-7 cells stably transduced with a gene construct comprising 4 tandem RA-response elements linked to a promoter driving transcriptional expression of the firefly luciferase encoding mRNA (RARE-luc). This construct serves as a sensitive reporter of retinoid-like activity.
RARE-luc transduced MCF-7 cells were maintained in a RPMI-1640 medium containing 10% FBS. Cells were grown in 96-well plates, and treated with the test compound diluted in DMSO in duplicate at 0.1 nM, 1 nM, 10 nM, 100 nM, 1 µM and 10 µM final concentrations. As a positive control for reporter activation, cells were also treated with RA diluted in DMSO at the same concentrations. DMSO treatment alone served as a negative control. After 24 hours of treatment, cells were harvested lysis buffer (Molecular Devices, San Jose, USA) and luciferase activity in cell lysates were read using a luminometer.

Test [3] addresses T1, CYP26B1. Description: U2OS cell-based inhibitor assay (endogenous CYP26B1). Further details: This assay used a human cell type endogenously expressing the CYP26B1 enzyme; endogenous in cells; host or cells: U2OS, pre-treated with 1 µM RA for 24 hours. To be noted: U2OS cells pre-treated with 1 µM RA for 24 hours; Figure 4. The procedure: This assay used a human cell type endogenously expressing the CYP26B1 enzyme to test the ability of a compound to block RA metabolism. U2OS cells were grown in McCoy's 5A medium containing 10% fetal bovine serum (FBS) and 1X antibiotic/antimycotic cocktail. Cells grown in a T-175 culture flask at […] were treated with 1 µM RA for 24 hours to induce the expression of the CYP26B1 gene prior to the assay. Following this treatment period, cells were collected by trypsinization, washed twice in PBS, and resuspended in 7 ml of fresh culture medium. These cells were then re-plated in 48-well plates, and the assay was carried out as described for the HeLa-cell based assay.

The target in test [4] is T1, CYP26B1. Briefly: Microsome-based inhibitor assay (microsomes from CYP26B1-transfected HeLa cells). It counts as biochemical. The following applies: 5µg microsomal fraction, 1mM NADPH, 1 hour at 37°C; Figure 3. The procedure: This assay used cell-free microsomes to measure the ability of a test compound to inhibit the metabolism of RA. Microsomal fractions were obtained from CYP26B1 cDNA stably transfected HeLa cells by differential centrifugation of cell lysates. Assays were carried out in 48-well plates containing 5µg of microsomal fraction in Microsome Assay Buffer, containing 0.04µCi [^3H]-RA in the presence of increasing concentrations of a test compound, as described above for the HeLa cell-based assay. Reactions were initiated by addition of 1mM NADPH, and carried out for 1 hour at 37°C. Reactions were stopped, retinoids extracted, and data were collected and analyzed as described above for the HeLa cell-based assay.

SMILES strings stand for the structures.

As to `CC(C)(C)c1cccc(-c2cc3cc(/C=C/C(=O)O)ccc3[nH]2)c1` [Compound 1, (E)-3-(2-(3-(tert-butyl)phenyl)-1H-indol-5-yl)acrylic acid], the half-maximal inhibitory concentration (IC50) in test [1] stood at 12.7 nM; in test [3], 1.9 nM; in test [4], 5.9 nM. Besides, the luciferase activity result in test [2] was “did not induce luciferase activity significantly”.

Usually IC50 stands for the point on the concentration scale where inhibition reaches its midpoint.

The values are drawn from patent EP4470536A1, “COMPOUND FOR USE IN TREATING FIBRODYSPLASIA OSSIFICANS PROGRESSIVA (FOP)” (Queen's University At Kingston, priority 2023, dated 2024).
